# Laboratory results from paper PMC2424174, “Suppression of Tumor Growth and Angiogenesis by a Specific Antagonist of the Cell-Surface Expressed Nucleolin” (PLoS ONE, 2008).
# What was measured:
# Swiss mice = assay: Mouse Matrigel plug angiogenesis assay; format: in vivo; conditions: endothelial-cell infiltration, n = 5 mice
# Procedure: Figure 6 Inhibition of in vitro and in vivo angiogenesis by HB-19. (A) HB-19 inhibits proliferation of HUVECs. Twenty-four hours after seeding HUVECs in 2% FBS, cells were stimulated by 0.25 nM VEGF165, in the absence or presence of 1 µM HB-19 or 0.1 µM anti-nucleolin mAb MS-3 as indicated. After 72 h, cell number was determined by crystal violet staining. The data are reported as the mean of triplicate samples. (B) HB-19 inhibits migration of HUVECs. Cell migration was studied using a modified Boyden chamber. Cells were incubated (4 h at 37°C) with VEGF165, HB-19, or anti-nucleolin mAb MS-3 as above. Cells that migrated through the pore to the lower filter surface were counted and are shown as number per microscopic field at ×100 magnification. The data are the mean of three independent high-power fields/well performed in duplicate in two independent experiments. […] Aortic endothelial (ABAE) cells in the absence or presence of 3 nM PTN, 0.5 nM VEGF165, and 3 nM FGF-2 were seeded on a three-dimensional collagen gel in complete medium. […] Tubular network structures were quantified using phase contrast microscopy (×100). […] Quantification of endothelial cell invasion into the Matrigel was determined and is expressed as a mean of five fields per section from 3 Matrigel-plug sections per mouse. The results are expressed as the mean of five mice per group. […]
# ERK1/2 = assay: Serum-induced phosphorylation of ERK1/2; format: cell-based, human; conditions: 2, 5 and 10 µM HB-19; 5 min after 10% FBS
# Procedure: Figure 5 Cell cycle perturbations induced by HB-19 treatment. (A) Analysis of cell cycle parameters in HB-19 treated cells. MDA-MB-231 cells were cultured for 48 hours in medium without FBS (starvation) or in medium containing 10% FBS supplemented or not with 10 µM HB-19. DNA synthesis was quantified after BrdU incorporation and staining with anti-BrdU antibody and 7-AAD, by FACScan analysis. The histograms indicate the relative amount of cells in G1, S and G2/M cell phases. […] Serum starved MDA-MB-231 cells were stimulated with 10% FBS in the absence or presence of 2, 5, and 10 µM of HB-19. Five minutes after serum stimulation, cells were lysed directly in electrophoresis sample buffer and processed for immunoblotting using anti-phospho-p42/44 ERK1/2 and anti-p42/44 ERK antibodies. NS stands for non-stimulated cells.
# MDA-MB-435 cells = assay: Colony formation in soft agar, MDA-MB-435; format: cell-based, human; conditions: 5 µM HB-19, MDA-MB-435
# Procedure: Figure 4 HB-19 inhibits colony formation in soft agar by tumor cell lines. (A) MDA-MB-231 cells in culture medium were seeded in triplicate in the absence (histogram C) or presence of 0.1, 0.5 and 1 of µM HB-19, or 0.1 µM of the anti-nucleolin mAb MS-3 or control IgG, or 10 µM bisphosphonate (BisP). (B) Various tumor cell lines (as indicated) in culture medium were seeded in triplicate in the absence (histogram Control) or presence of 5 µM HB-19. After 10–21 days, colonies with diameters greater than 50 µm were scored as positive. Statistical significance: *0.01<p<[…], **p<0.01, ***p<0.001.
# Carcinoma cells (2×10^4) were mixed in 0.35% top agar, diluted in complete medium (DMEM containing 10% FBS) in the absence or presence of HB-19, and plated onto 0.8% bottom agar into 12-well plates. Cells were treated twice a week during 10 to 21 days. Colonies with diameters greater than 50 µm were scored as positive using a phase contrast microscope equipped with a measuring grid at magnification 100× [45]. The number of colonies was determined by analyzing 5 fields/well from 3 wells and the test was repeated at least twice.
substance,measurement,setting,value
"pseudo-tripeptide Lysψ(CH2N)-Pro-Arg coupled to a template (H2NLys-Lys-Lys-Gly-Pro-Lys-Glu-Lys-AhxCONH2) [HB-19, pseudopeptide presenting pentavalently the pseudo-tripeptide Lysψ(CH2N)-Pro-Arg coupled to a template]",inhibition of PTN induced angiogenesis,"Swiss mice; 1 µM HB-19, 5 nM PTN",significantly inhibited the ex vivo angiogenesis
same,inhibition of FGF-2 induced angiogenesis,"Swiss mice; 1 µM HB-19, 10 nM FGF-2",significantly inhibited the ex vivo angiogenesis
same,serum-stimulated ERK1/ERK2 phosphorylation,ERK1/2,prevents enhanced phosphorylation of ERK1/ERK2
same,colony formation,MDA-MB-435 cells,reduced markedly
